For one test, the target named is T1, IDH2-R140Q (Homo sapiens, UniProt P48735, R140Q).
T1 construct: expressed in transfected cells
T1 sequence (P48735 40-452 R140Q): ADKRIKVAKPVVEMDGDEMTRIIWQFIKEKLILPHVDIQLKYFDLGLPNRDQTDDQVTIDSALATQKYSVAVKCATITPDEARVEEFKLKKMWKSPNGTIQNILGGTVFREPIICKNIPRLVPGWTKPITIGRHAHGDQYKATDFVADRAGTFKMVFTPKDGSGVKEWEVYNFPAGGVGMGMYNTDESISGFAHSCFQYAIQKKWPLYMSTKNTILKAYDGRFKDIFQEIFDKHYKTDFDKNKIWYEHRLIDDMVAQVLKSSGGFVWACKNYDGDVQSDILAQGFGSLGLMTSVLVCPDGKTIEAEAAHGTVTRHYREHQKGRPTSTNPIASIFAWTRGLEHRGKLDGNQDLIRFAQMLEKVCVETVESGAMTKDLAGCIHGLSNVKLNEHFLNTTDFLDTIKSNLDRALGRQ
Description: Fluorescent determination of IDH2-R140Q cell activity (2-HG in U87MGR140Q cells). It counts as cell-based. To be noted: 72 hours incubation, read-out: IC50 (2-HG inhibition).

For the next test, the target named is T2, IDH1-R132H (Homo sapiens, UniProt O75874, R132H).
T2 construct: expressed in transfected cells; host or cells: U87MG cells (U87MGR132H)
In words: Fluorescent determination of IDH1-R132H cell activity (2-HG in U87MGR132H cells). It counts as cell-based. Conditions: 2-HG inhibition in U87MGR132H cells transfected with IDH1-R132H mutant plasmid.

Some results are limits rather than exact numbers.

Broadly, the IC50 is the concentration needed to halve the response being measured.

T2 sequence (O75874 whole entry R132H): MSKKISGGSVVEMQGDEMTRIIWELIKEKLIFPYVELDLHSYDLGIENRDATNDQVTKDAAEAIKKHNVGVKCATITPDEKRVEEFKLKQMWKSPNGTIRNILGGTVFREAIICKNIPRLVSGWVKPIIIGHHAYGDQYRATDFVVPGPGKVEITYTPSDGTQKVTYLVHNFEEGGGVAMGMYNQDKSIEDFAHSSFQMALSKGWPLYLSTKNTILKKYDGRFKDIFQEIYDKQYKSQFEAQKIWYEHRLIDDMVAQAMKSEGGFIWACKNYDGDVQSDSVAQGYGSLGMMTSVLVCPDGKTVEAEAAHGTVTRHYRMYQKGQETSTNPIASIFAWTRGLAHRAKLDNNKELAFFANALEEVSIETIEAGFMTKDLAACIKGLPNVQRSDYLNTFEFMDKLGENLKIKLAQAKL

For the compound `C[C@H](Nc1nc(NC2CC2)nc(C2=C(F)C(O)C(F)(F)CC2)n1)C(F)(F)F` (mixture of isomers) [Compound 260], the IC50 at IDH2-R140Q is 94 nM; against IDH1-R132H, over 10000 nM.

On to `CC(C)(C)ONc1nc(Nc2ccnc(F)c2)nc(C2=C(F)C(O)CCC2)n1` (centres unmarked) [Compound 73], for which the concentration for half-maximal inhibition (IC50) on IDH2-R140Q was 64 nM; on IDH1-R132H, over 10000 nM.

For the compound `CC(Nc1nc(N[C@H](C)C(F)(F)F)nc(C2=C(F)C(O)CCC2)n1)C(F)F` (mixture of isomers) [Compound 174], the values for the half-maximal inhibitory concentration (IC50) at IDH2-R140Q and against IDH1-R132H were 96 nM and 343 nM, respectively.

In the case of `CONc1nc(N[C@H](C)C(F)(F)F)nc(C2=C(F)C(O)C(F)(F)CC2)n1` (mixture of isomers) [Compound 297, 2,6,6-Trifluoro-3-(4-(methoxyamino)-6-(((R)-1,1,1-trifluoropropan-2-yl)amino)-1,3,5-triazin-2-yl)cyclohex-2-en-1-ol], the IC50 was 2660 nM at IDH2-R140Q and over 10000 nM on IDH1-R132H.

Regarding `C[C@@H](Nc1nc(NC2CC3(CCC3)C2)nc(C2=C(F)C(O)CCC2)n1)C(F)(F)F` (mixture of isomers) [Compound 159], the IC50 at IDH2-R140Q stood at 205 nM; against IDH1-R132H it was 2720 nM.

For `CC(C)(O)CNc1nc(Nc2ccc3sncc3c2)nc(C2=C(F)C(O)CCC2)n1` (centres unmarked) [Compound 199], the IC50 was 1500 nM at IDH2-R140Q and over 10000 nM on IDH1-R132H.

As to `C[C@@H](Nc1nc(NC2CC(F)(F)C2)nc(C2=C(F)C(O)CCC2)n1)C(F)(F)F` (mixture of isomers) [Compound 31], the IC50 was 110 nM on IDH2-R140Q and 280 nM on IDH1-R132H.

For `CC(C)(C)ONc1nc(Nc2ccnc(F)c2)nc(C2=C(F)C(O)C(F)(F)CC2)n1` (centres unmarked) [Compound 215], the half-maximal inhibitory concentration (IC50) on IDH2-R140Q is 79 nM; against IDH1-R132H, over 10000 nM.

On to `CC(C)Nc1nc(N[C@H](C)C(F)(F)F)nc(C2=C(F)C(O)C(F)(F)CC2)n1` (some centres unmarked) [Compound 244], for which the half-maximal inhibitory concentration (IC50) at IDH2-R140Q was 53 nM; against IDH1-R132H it was 1080 nM.

For the compound `C[C@@H](Nc1nc(N[C@H](C)C(F)(F)F)nc(C2=C(F)C(O)CCCC2)n1)C(F)(F)F` (mixture of isomers) [Compound 21], the IC50 at IDH2-R140Q was determined as 99 nM; on IDH1-R132H it was 234 nM.

For `C[C@@H](Nc1nc(NCC2CC2)nc(C2=C(F)C(O)CCC2)n1)C(F)(F)F` (some centres unmarked) [Compound 80], the results for the IC50 on IDH2-R140Q and against IDH1-R132H were 79 nM and 2700 nM, respectively.

Take `C[C@@H](Nc1nc(NC2CCCCC2)nc(C2=CC(O)CCC2)n1)C(F)(F)F` (mixture of isomers) [Compound 136]: the IC50 at IDH2-R140Q was 296 nM; against IDH1-R132H it was 1340 nM.

As for `[2H]C1(O)C(F)=C(c2nc(NC3CC3)nc(N[C@H](C)C(F)(F)F)n2)CCC1(F)F` (mixture of isomers) [Compound 279], the half-inhibitory concentration (IC50) on IDH2-R140Q turned out to be 170 nM; on IDH1-R132H, 9430 nM.

`C[C@@H](Nc1nc(NC2CC(F)(F)C2)nc(C2=C(F)C(O)C(F)CC2)n1)C(F)(F)F` (single isomer, unassigned) [Compound 228]: the half-inhibitory concentration (IC50) at IDH2-R140Q amounted to 417 nM; against IDH1-R132H, 705 nM.

In the case of `CC(C)CNc1nc(N[C@H](C)C(F)(F)F)nc(C2=CC(O)CCC2)n1` (mixture of isomers) [Compound 134], the half-inhibitory concentration (IC50) stood at 100 nM at IDH2-R140Q and 2470 nM on IDH1-R132H.

As for `C[C@H](Nc1nc(NOC(C)(C)C)nc(C2=C(F)C(O)C(F)(F)CC2)n1)C(F)(F)F` (mixture of isomers) [Compound 293], the results for the IC50 on IDH2-R140Q and against IDH1-R132H were 637 nM and over 10000 nM, respectively.

As for `CC(C)Nc1nc(Nc2ccnc(F)c2)nc(C2=C(F)C(O)CCC2)n1` (centres unmarked) [Compound 74], the IC50 at IDH2-R140Q amounted to 34 nM; against IDH1-R132H, 7440 nM.

For `C[C@@H](Nc1nc(NC2CCCC2(F)F)nc(C2=C(F)C(O)CCC2)n1)C(F)(F)F` (mixture of isomers) [Compound 166], the IC50 turned out to be 180 nM at IDH2-R140Q and 1350 nM at IDH1-R132H.

As to `C[C@@H](Nc1nc(NC2CC(F)(F)C2)nc(C2=C(F)C(O)CCCC2)n1)C(F)(F)F` (some centres unmarked) [Compound 40], the values for the half-maximal inhibitory concentration (IC50) on IDH2-R140Q and against IDH1-R132H were 106 nM and 450 nM, respectively.

The values above are taken from patent US12234211B2, “Cycloolefin substituted heteroaromatic compounds and their use” (HUTCHISON MEDIPHARMA LIMITED, priority 2017, dated 2025).
